Like-named read-outs stand apart in the source and are kept apart here.
What was measured:
Assay in all cases: biochemical
Parameters in all cases: Reaction Biology 371-kinase panel at Km ATP, per cent enzyme activity relative to DMSO, single dose in duplicate
ABL1 = ABL1 (Homo sapiens, UniProt P00519); settings: duplicate measurements, Km ATP
How it was run: (§1)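 Percent kinase activity relative to vehicle (DMSO) is reported for a 371-kinase in vitro panel at 300 nM compound; IC50 values derive from variable-slope sigmoidal fits with the lower plateau fixed at 0.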

EPHB2 = EPHB2 (Homo sapiens, UniProt P29323); settings: duplicate measurements, Km ATP
Chain of EPHB2 (P29323 whole entry): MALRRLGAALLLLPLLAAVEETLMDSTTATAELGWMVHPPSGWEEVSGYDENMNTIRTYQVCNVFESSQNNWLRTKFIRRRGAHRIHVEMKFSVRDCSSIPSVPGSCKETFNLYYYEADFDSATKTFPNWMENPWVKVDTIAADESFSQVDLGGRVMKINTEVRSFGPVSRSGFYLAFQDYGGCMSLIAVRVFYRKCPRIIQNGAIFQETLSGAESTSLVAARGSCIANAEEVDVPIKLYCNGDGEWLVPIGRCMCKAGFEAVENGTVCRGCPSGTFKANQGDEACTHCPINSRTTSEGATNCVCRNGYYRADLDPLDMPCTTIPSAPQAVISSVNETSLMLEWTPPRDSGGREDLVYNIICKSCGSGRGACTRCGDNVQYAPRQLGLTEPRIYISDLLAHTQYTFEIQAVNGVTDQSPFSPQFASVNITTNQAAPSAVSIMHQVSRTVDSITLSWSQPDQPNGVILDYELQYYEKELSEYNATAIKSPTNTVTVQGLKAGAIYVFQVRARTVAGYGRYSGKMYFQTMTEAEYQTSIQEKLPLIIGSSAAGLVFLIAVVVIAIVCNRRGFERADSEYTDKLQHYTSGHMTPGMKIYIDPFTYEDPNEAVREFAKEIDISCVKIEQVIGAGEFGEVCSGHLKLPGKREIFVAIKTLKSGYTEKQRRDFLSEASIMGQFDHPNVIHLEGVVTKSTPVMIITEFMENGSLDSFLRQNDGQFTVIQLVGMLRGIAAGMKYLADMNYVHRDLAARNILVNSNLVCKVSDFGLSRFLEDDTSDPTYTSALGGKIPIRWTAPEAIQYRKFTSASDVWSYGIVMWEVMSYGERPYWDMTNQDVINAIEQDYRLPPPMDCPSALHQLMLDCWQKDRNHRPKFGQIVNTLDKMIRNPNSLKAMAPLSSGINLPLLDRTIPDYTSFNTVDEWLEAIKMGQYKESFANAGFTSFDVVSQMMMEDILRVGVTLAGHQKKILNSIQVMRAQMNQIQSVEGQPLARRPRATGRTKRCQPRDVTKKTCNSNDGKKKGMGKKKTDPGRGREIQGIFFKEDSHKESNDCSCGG
How it was run: as §1

EPHB3 = EPHB3 (Homo sapiens, UniProt P54753); settings: duplicate measurements, Km ATP
How it was run: as §1

FAK/PTK2 = FAK/PTK2 (Homo sapiens, UniProt Q05397); settings: duplicate measurements, Km ATP
Chain of FAK/PTK2 (Q05397 whole entry): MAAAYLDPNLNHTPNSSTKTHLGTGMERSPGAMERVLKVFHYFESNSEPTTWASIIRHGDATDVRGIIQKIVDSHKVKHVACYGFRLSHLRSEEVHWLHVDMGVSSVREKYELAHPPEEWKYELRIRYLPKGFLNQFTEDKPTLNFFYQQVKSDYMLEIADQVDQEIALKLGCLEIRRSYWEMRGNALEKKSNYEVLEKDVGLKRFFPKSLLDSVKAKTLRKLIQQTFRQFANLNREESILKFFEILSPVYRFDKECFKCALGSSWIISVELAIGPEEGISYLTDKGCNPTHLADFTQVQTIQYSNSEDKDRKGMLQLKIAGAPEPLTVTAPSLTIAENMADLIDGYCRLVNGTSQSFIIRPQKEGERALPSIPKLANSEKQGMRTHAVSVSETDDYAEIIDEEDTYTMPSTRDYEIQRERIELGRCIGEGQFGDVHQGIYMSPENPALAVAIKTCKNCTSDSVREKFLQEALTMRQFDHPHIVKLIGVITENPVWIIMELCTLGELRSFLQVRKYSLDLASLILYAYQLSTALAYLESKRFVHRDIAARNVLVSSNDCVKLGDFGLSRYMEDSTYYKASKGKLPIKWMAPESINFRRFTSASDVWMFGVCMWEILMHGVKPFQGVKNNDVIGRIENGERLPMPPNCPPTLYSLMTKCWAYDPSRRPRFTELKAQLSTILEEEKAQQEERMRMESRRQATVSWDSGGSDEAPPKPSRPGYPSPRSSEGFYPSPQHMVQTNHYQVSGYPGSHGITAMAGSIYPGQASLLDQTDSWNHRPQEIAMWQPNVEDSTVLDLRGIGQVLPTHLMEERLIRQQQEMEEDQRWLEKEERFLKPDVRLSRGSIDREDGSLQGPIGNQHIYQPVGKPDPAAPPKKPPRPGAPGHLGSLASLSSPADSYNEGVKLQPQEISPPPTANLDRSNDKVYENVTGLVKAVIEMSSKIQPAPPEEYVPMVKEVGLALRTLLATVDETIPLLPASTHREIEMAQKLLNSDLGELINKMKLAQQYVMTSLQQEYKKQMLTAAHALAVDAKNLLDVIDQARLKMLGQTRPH
How it was run: as §1

GRK1 = GRK1 (Homo sapiens, UniProt Q15835); settings: duplicate measurements, Km ATP
How it was run: as §1

HIPK3 = HIPK3 (Homo sapiens, UniProt Q9H422); settings: duplicate measurements, Km ATP
How it was run: as §1

LYN = LYN (Homo sapiens, UniProt P07948); settings: duplicate measurements, Km ATP
Chain of LYN (P07948 whole entry): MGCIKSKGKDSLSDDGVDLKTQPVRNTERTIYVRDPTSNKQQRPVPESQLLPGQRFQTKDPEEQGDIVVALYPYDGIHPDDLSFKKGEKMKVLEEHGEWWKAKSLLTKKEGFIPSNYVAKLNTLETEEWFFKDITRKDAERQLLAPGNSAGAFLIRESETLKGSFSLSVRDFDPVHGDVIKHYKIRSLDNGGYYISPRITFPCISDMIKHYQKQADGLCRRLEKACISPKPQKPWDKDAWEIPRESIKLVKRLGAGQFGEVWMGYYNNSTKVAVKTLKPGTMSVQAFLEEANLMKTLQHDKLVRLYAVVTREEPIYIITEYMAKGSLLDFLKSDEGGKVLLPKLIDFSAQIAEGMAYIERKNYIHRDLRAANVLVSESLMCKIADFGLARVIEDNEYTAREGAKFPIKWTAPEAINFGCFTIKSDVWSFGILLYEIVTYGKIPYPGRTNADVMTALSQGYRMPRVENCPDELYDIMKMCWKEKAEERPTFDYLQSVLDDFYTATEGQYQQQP
How it was run: as §1

MLK3/MAP3K11 = MLK3/MAP3K11 (Homo sapiens, UniProt Q16584); settings: duplicate measurements, Km ATP
How it was run: as §1

MST2/STK3 = MST2/STK3 (Homo sapiens, UniProt Q13188); settings: duplicate measurements, Km ATP
How it was run: as §1

PASK = PASK (Homo sapiens, UniProt Q96RG2); settings: duplicate measurements, Km ATP; read-out: % Enzyme Activity (relative to DMSO controls) / TP-0005801 (0.3µM) / Data 1
How it was run: as §1

PIM2 = PIM2 (Homo sapiens, UniProt Q9P1W9); settings: duplicate measurements, Km ATP
How it was run: as §1

PKCiota = molecular target: T1, PKCiota (Homo sapiens, UniProt P41743); settings: duplicate measurements, Km ATP
T1 construct: gene PRKCI
T1 sequence (P41743 whole entry): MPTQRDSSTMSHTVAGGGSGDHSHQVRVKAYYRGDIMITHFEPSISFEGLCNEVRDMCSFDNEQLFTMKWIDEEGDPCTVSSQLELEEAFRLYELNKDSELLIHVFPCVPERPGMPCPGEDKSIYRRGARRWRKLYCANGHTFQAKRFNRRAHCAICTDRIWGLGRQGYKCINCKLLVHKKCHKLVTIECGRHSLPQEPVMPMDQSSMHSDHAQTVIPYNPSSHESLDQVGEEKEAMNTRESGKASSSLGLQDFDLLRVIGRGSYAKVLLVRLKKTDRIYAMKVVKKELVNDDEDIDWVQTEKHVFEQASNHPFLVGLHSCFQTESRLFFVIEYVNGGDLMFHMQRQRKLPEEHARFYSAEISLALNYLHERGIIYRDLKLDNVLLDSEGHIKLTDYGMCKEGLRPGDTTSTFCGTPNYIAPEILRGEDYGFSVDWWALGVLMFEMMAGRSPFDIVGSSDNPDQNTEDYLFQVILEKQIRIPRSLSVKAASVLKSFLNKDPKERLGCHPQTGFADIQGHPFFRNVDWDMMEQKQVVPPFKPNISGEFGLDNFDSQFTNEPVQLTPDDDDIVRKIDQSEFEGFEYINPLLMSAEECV
How it was run: as §1

RIPK2 = RIPK2 (Homo sapiens, UniProt O43353); settings: duplicate measurements, Km ATP
Chain of RIPK2 (O43353 whole entry): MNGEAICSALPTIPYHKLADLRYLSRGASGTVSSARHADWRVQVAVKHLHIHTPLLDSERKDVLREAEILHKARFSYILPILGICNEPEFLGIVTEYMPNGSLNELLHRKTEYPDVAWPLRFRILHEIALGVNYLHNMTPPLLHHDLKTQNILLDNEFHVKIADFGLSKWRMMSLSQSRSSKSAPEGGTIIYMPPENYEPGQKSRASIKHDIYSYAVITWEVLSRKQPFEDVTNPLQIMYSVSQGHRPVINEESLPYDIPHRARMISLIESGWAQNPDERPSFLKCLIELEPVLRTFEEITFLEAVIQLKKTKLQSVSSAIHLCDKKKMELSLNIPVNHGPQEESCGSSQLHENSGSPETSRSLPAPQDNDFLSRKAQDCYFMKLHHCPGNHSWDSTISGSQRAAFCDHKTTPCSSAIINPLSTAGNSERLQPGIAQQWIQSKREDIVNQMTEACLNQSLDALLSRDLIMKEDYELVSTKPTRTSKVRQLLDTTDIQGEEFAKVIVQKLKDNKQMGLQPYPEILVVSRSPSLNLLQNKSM
How it was run: as §1

SRPK2 = SRPK2 (Homo sapiens, UniProt P78362); settings: duplicate measurements, Km ATP
How it was run: as §1

SSTK/TSSK6 = SSTK/TSSK6 (Homo sapiens, UniProt Q9BXA6); settings: duplicate measurements, Km ATP
Chain of SSTK/TSSK6 (Q9BXA6 whole entry): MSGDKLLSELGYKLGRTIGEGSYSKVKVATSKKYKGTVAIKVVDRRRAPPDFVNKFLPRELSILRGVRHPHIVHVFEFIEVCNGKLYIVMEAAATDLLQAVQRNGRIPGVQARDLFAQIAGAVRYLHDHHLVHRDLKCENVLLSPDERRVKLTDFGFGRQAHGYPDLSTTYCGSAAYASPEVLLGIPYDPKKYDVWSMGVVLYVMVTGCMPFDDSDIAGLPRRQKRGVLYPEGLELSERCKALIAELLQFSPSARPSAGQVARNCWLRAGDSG
How it was run: as §1

STK32B/YANK2 = STK32B/YANK2 (Homo sapiens, UniProt Q9NY57); settings: duplicate measurements, Km ATP
How it was run: as §1

ZAK/MLTK = molecular target: T2, ZAK/MLTK (Homo sapiens, UniProt Q9NYL2); settings: duplicate measurements, Km ATP
T2 construct: gene MAP3K20
T2 sequence (Q9NYL2 whole entry): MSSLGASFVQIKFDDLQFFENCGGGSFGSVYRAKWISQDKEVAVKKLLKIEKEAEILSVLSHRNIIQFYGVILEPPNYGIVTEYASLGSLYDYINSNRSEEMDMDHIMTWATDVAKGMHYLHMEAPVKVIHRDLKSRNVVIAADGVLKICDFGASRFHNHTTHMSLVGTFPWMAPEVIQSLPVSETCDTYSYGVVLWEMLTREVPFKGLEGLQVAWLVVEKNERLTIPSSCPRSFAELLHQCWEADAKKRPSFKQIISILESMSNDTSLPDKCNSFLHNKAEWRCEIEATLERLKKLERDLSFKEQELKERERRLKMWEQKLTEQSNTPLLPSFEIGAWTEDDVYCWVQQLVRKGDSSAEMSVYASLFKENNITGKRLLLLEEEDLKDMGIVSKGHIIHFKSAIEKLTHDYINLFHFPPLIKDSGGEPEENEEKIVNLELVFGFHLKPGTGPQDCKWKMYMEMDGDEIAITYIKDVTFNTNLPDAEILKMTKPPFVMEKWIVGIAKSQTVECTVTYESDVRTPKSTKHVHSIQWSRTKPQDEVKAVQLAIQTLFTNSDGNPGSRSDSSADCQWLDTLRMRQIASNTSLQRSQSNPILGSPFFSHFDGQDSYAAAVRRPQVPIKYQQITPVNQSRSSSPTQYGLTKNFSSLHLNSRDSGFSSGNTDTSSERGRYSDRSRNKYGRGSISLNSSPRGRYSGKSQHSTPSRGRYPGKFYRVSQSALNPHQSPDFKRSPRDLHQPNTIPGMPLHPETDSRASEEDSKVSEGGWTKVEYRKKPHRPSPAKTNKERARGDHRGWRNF
How it was run: as §1

[1] = read-out: % Enzyme Activity (relative to DMSO controls) / TP-0005801 (0.3µM) / Data 1
[2] = read-out: % Enzyme Activity (relative to DMSO controls) / TP-0005801 (0.3µM) / Data 2

remaining activity at 0.3 µM (ABL1; [1]): 109% | remaining activity at 0.3 µM (ABL1; [2]): 107% | remaining activity at 0.3 µM (EPHB2; [1]): 86.4% | remaining activity at 0.3 µM (EPHB2; [2]): 85.6% | remaining activity at 0.3 µM (EPHB3; [1]): 104% | remaining activity at 0.3 µM (EPHB3; [2]): 102% | remaining activity at 0.3 µM (FAK/PTK2; [1]): 12.3% | remaining activity at 0.3 µM (FAK/PTK2; [2]): 11.4% | remaining activity at 0.3 µM (GRK1; [1]): 118% | remaining activity at 0.3 µM (GRK1; [2]): 109% | remaining activity at 0.3 µM (HIPK3; [1]): 91.9% | remaining activity at 0.3 µM (HIPK3; [2]): 85.6% | remaining activity at 0.3 µM (LYN; [1]): 70.1% | remaining activity at 0.3 µM (LYN; [2]): 69.8% | remaining activity at 0.3 µM (MLK3/MAP3K11; [1]): 89.5% | remaining activity at 0.3 µM (MLK3/MAP3K11; [2]): 89.3% | remaining activity at 0.3 µM (MST2/STK3; [1]): 97.7% | remaining activity at 0.3 µM (MST2/STK3; [2]): 97.5% | remaining activity at 0.3 µM (PASK): 102% | remaining activity at 0.3 µM (PIM2; [1]): 116% | remaining activity at 0.3 µM (PIM2; [2]): 110% | remaining activity at 0.3 µM (PKCiota; [1]): 101% | remaining activity at 0.3 µM (PKCiota; [2]): 99.1% | remaining activity at 0.3 µM (RIPK2; [1]): 95.8% | remaining activity at 0.3 µM (RIPK2; [2]): 93.9% | remaining activity at 0.3 µM (SRPK2; [1]): 114% | remaining activity at 0.3 µM (SRPK2; [2]): 110% | remaining activity at 0.3 µM (SSTK/TSSK6; [1]): 111% | remaining activity at 0.3 µM (SSTK/TSSK6; [2]): 107% | remaining activity at 0.3 µM (STK32B/YANK2; [1]): 96.4% | remaining activity at 0.3 µM (STK32B/YANK2; [2]): 94.8% | remaining activity at 0.3 µM (ZAK/MLTK; [1]): 103% | remaining activity at 0.3 µM (ZAK/MLTK; [2]): 101%
Structure (SMILES): COc1cc(N2CCN(C)CC2)c(C)cc1Nc1ncc(Br)c(Nc2cccnc2N(C)C)n1 [TP-5801]

Source: article PMC8429728, “TNK1 is a ubiquitin-binding and 14-3-3-regulated kinase that can be targeted to block tumor growth” (Nature Communications, 2021)
